Among the data in ChEMBL document CHEMBL1155692, “An unusual nitrogenous terphenyl derivative from fruiting bodies of the basidiomycete Sarcodon leucopus” (2000) are EC50 values, retold here.

In brackets after ≈: the same amount, converted by molar mass.

For one assay, the system named is KB. In words: Cytotoxicity against human KB cells. It is filed as functional. As to conditions: read-out: ED50 (the source's name).
In a further assay the test system is P388. In words: Cytotoxicity against mouse P388 cells. It is filed as functional. As to conditions: read-out: ED50 (the source's name).

Consider `CC[C@@H](C)[C@]12Oc3cc(-c4c(O)c(O)c(-c5ccc(OC(C)=O)cc5)c(OC(C)=O)c4OC(C)=O)ccc3O[N+]1([O-])C(O)=C([C@@H](C)CC)N(O)C2=O` (some centres not stated) [SARCODONIN], for which the EC50 in the assay with KB amounted to 10 µg/mL (≈ 13.8 µM); with P388, 27 µg/mL (≈ 37.4 µM).
